According to US20240116875A1, “RATIONAL DESIGN, OPTIMIZATION, AND BIOLOGICAL EVALUATION OF NOVEL MEK4 INHIBITORS AGAINST PANCREATIC ADENOCARCINOMA” (NORTHWESTERN UNIVERSITY, priority 2022, published 2024):
“Also recorded” adds a separate entry of the source.

What was measured:
[1] = target: T1, BRAF (Homo sapiens, UniProt P15056); experiment: scanEDGE DiscoverX kinome-wide scan, BRAF; type: binding; conditions: 10 μM
T1 construct: purchased Eurofins DiscoverX scanEDGE
Source text: To compare our compounds to the rest of the MEK inhibitors discovered thus far, we turned to the DiscoverX platform (KINOMEscan®, Eurofins DiscoverX), a widely used assay for comparing selectivity across the kinome. The DiscoverX platform reports the thermodynamic Kd in order to facilitate direct comparison of inhibitor affinity across the kinome, independent of ATP concentration.

[2] = system: HEK293T cells; experiment: cell proliferation (cell count after 72 hours), HEK293T; type: cell-based, human; conditions: varying doses
Experimental: After 72 hours, cells were trypsinized, counted, and the cell numbers were normalized against the DMSO treatment. Mean±SD. Graphs are representative of 3 biological replicates. One-way ANOVA; ns, non-significant **, p<0.01 ***, p<0.001.
(§1) We also examined the effects of these inhibitors on JNK phosphorylation and proliferation of two pancreatic cancer cell lines (CD18 and MiaPaCa2).
(§2) Human pancreatic cancer cell lines (CD18/HPAF-II and MiaPaCa2) and HEK293T cells were obtained from American Type Culture Collection. All cell lines were cultured according to the manufacturer's protocol. All media contained 10% Fetal Bovine Serum (FBS) and antibiotics (100 U/mL Penicillin and 100 μg/mL Streptomycin).

[3] = PAMPA assay (BioDuro-Sundia); type: in vitro ADME
[4] = system: CD18 cells; experiment: cell proliferation (cell count after 72 hours), CD18; type: cell-based, human; conditions: CD18, 72 hours, varying doses, single agent
Experimental: (§3) After 72 hours, cells were trypsinized, counted, and the cell numbers were normalized against the DMSO treatment. Mean±SD. Graphs are representative of 3 biological replicates.
as §3
(§4) Cell numbers from different treatments were normalized against the DMSO treatment, and CDI is calculated as follows: CDI=AB/(A×B), with AB being the ratio of the combination groups to control group and A or B being the ratio of the single agent group to the DMSO group. Mean±SEM from 3 biological replicates.
as §1, §2

[5] = system: phospho-p42/44 MAPK in MiaPaCa2 cells; experiment: p42/44 MAPK phosphorylation, western blotting, MiaPaCa2; type: cell-based, human; conditions: MiaPaCa2, MEK4 inhibitor 10 μM, 5 hours
Experimental: The effects of different treatments on phospho-p42/44 MAPK and total p42/44 MAPK expression levels were determined by western blotting. HSP90 was used as loading control. The blots are representative of at least three biological replicates.
(§5) Whole cell extracts of cultured cells were prepared in radioimmunoprecipitation (RIPA) lysis buffer supplemented with phosphatase and protease inhibitors (Calbiochem). Protein concentration was determined by the bicinchoninic acid assay (BCA) (ThermoFisher) and separated by the SDS-PAGE technique. […] Secondary anti-mouse IgG (A4416) and anti-rabbit IgG (A6667) antibodies were purchased from Sigma-Aldrich and used a 1:4000 dilution. Images of blots were acquired on HyBlot ES Autoradiography Film (Thomas Scientific, Swedesboro, NJ, USA) following incubation with SuperSignal West Pico PLUS (ThermoFisher).

[6] = system: MiaPaCa2 cells; experiment: cell proliferation (cell count after 72 hours), MiaPaCa2; type: cell-based, human; conditions: MiaPaCa2, 72 hours, varying doses, single agent
Experimental: as §3, §3, §4, §1, §2

[7] = in vitro; conditions: microsomes
[8] = system: JNK phosphorylation in CD18 cells; experiment: anisomycin-induced JNK phosphorylation, western blotting, CD18; type: cell-based, human; conditions: CD18, anisomycin 45 minutes then compound 5 hours
Experimental: HSP90 was used as loading control. The blots are representative of at least three biological replicates.
as §1, §2, §5

T1 sequence (P15056 whole entry): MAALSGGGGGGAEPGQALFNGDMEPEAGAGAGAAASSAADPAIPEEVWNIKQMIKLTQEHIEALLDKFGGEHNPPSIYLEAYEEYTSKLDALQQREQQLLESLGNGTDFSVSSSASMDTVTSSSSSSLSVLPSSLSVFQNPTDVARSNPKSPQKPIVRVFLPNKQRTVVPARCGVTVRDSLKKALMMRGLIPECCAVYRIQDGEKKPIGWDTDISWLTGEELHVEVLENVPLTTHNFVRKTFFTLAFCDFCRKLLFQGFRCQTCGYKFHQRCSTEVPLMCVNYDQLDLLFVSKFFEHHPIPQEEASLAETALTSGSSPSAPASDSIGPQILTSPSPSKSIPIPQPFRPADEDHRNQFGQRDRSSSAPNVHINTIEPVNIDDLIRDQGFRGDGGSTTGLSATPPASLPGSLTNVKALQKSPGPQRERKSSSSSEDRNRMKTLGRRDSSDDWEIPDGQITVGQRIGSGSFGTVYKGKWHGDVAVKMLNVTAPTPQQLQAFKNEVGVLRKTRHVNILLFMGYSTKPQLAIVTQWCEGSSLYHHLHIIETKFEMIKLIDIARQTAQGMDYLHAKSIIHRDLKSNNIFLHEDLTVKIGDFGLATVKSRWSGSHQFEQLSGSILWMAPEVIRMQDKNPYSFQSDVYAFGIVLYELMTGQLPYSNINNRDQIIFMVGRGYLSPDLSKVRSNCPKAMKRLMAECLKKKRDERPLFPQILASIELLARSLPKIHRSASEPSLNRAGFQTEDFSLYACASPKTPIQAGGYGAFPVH

SMILES: NC(=O)c1ccc(NS(=O)(=O)c2cccc(-c3n[nH]c4cc(F)ccc34)c2)cc1 [Compound 15o, 4-((3-(6-fluoro-1H-indazol-3-yl)phenyl)sulfonamido)benzamide]
- inhibition of BRAF [1]: did not inhibit
- cell proliferation [2]: decreased. HEK293T cell proliferation in a dose-dependent manner
- permeability in the PAMPA assay [3]: low permeability
- cell proliferation [4]: decreased proliferation; also recorded: antiproliferative properties
- effect on p42/44 MAPK phosphorylation [5]: did not induce p42/44 MAPK phosphorylation
- cell proliferation [6]: decreased proliferation; also recorded: antiproliferative properties
- half-life [7]: > 3.08 h
- stability in the microsome assay [7]: good stability
- effect on anisomycin-induced JNK phosphorylation [8]: attenuated anisomycin-induced JNK phosphorylation
